Measured values taken from US7585851B2, “3′-prodrugs of 2′-deoxy-β-L-nucleosides” (priority 2000, dated 2009).

Assays:
[1] = Cytotoxicity in 2.2.15 cells; conditions: human, 2.2.15 hepatoma cells
[2] = tested on: human erythroid burst-forming (BFU-E) progenitor cells; type: cell-based; conditions: human bone marrow clonogenic assay
Text: (§1) In particular, anemia and neutropenia are the most common drug-related clinical toxicities associated with the anti-HIV drug zidovudine (ZDV).

[3] = tested on: human granulocyte-macrophage colony-forming (CFU-GM) progenitor cells; type: cell-based; conditions: human bone marrow clonogenic assay
Text: as §1

HBV = assay: Anti-HBV activity in HBV-expressing 2.2.15 cells (HBV DNA reduction)
[4] = tested on: human hepatoma cell line 2.2.15; assay: Cytotoxicity in 2.2.15 cells; conditions: 2.2.15 cells; 50% inhibition of neutral red dye uptake (Table 25)

| Structure (SMILES) | CC50 [1] [µM] | IC50 [2] [µM] | IC50 [3] [µM] | S.I. (CC50/EC90) (HBV; 2.2.15 cells) | EC90 (HBV; Hepatitis B virus) [µM] | CC50 [4] [µM] |
| --- | --- | --- | --- | --- | --- | --- |
| Nc1ccn([C@@H]2CS[C@H](CO)O2)c(=O)n1 [lamivudine, (−)-enantiomer of cis-2-hydroxymethyl-5-(cytosin-1-yl)-1,3-oxathiolane, reference compound] | > 1000 | > 10 | > 10 | >5,000 | 0.18 ± 0.007 | – |
| Cc1cn([C@@H]2C[C@@H](O)[C@H](CO)O2)c(=O)[nH]c1=O [L-dT, β-L-2′-deoxythymidine] | – | – | – | – | – | 3020 |
